Key:
[1] = biological target: AP2-associated protein kinase 1 (Homo sapiens) (UniProt Q2M2I8); conditions: Compound concentration 1000.0 nM
[2] = tested on: Tyrosine-protein kinase ABL1 (Homo sapiens), P00519 [F317I]; conditions: Compound concentration 1000.0 nM
[3] = biological target: Activin receptor type-1B (Homo sapiens) (UniProt P36896); conditions: Compound concentration 1000.0 nM
[4] = biological target: 5'-AMP-activated protein kinase catalytic subunit alpha-1 (Homo sapiens) (UniProt Q13131); conditions: Compound concentration 1000.0 nM
[5] = biological target: Aurora kinase C (Homo sapiens) (UniProt Q9UQB9); conditions: Compound concentration 1000.0 nM
[6] = tested on: Serine/threonine-protein kinase B-raf (Homo sapiens), P15056 [V600E]; conditions: Compound concentration 1000.0 nM
[7] = biological target: Tyrosine-protein kinase BTK (Homo sapiens) (UniProt Q06187); conditions: Compound concentration 1000.0 nM
[8] = biological target: Cyclin-dependent kinase 19 (Homo sapiens) (UniProt Q9BWU1); conditions: Compound concentration 1000.0 nM
[9] = biological target: Cyclin-dependent kinase-like 3 (Homo sapiens) (UniProt Q8IVW4); conditions: Compound concentration 1000.0 nM
[10] = biological target: Death-associated protein kinase 1 (Homo sapiens) (UniProt P53355); conditions: Compound concentration 1000.0 nM
[11] = tested on: Epidermal growth factor receptor (Homo sapiens), P00533 [L858R]; conditions: Compound concentration 1000.0 nM
[12] = biological target: Ephrin type-A receptor 2 (Homo sapiens) (UniProt P29317); conditions: Compound concentration 1000.0 nM
[13] = tested on: Receptor-type tyrosine-protein kinase FLT3 (Homo sapiens), P36888 [D835Y]; conditions: Compound concentration 1000.0 nM
[14] = biological target: G protein-coupled receptor kinase 3 (Homo sapiens) (UniProt P35626); conditions: Compound concentration 1000.0 nM
[15] = biological target: Homeodomain-interacting protein kinase 2 (Homo sapiens) (UniProt Q9H2X6); conditions: Compound concentration 1000.0 nM
[16] = tested on: Mast/stem cell growth factor receptor Kit (Homo sapiens), P10721 [A829P]; conditions: Compound concentration 1000.0 nM
[17] = biological target: Myosin light chain kinase (Homo sapiens) (UniProt Q32MK0); conditions: Compound concentration 1000.0 nM
[18] = biological target: Serine/threonine-protein kinase 4 (Homo sapiens) (UniProt Q13043); conditions: Compound concentration 1000.0 nM
[19] = biological target: Muscle, skeletal receptor tyrosine-protein kinase (Homo sapiens) (UniProt O15146); conditions: Compound concentration 1000.0 nM
[20] = biological target: Myosin-IIIa (Homo sapiens) (UniProt Q8NEV4); conditions: Compound concentration 1000.0 nM
[21] = biological target: Serine/threonine-protein kinase Nek2 (Homo sapiens) (UniProt P51955); conditions: Compound concentration 1000.0 nM
[22] = biological target: Serine/threonine-protein kinase NLK (Homo sapiens) (UniProt Q9UBE8); conditions: Compound concentration 1000.0 nM
[23] = biological target: Mitogen-activated protein kinase 14 (Homo sapiens) (UniProt Q16539); conditions: Compound concentration 1000.0 nM
[24] = biological target: Cyclin-dependent kinase 17 (Homo sapiens) (UniProt Q00537); conditions: Compound concentration 1000.0 nM
[25] = biological target: Phosphatidylinositol 4-phosphate 3-kinase C2 domain-containing subunit beta (Homo sapiens) (UniProt O00750); conditions: Compound concentration 1000.0 nM
[26] = tested on: Phosphatidylinositol 4,5-bisphosphate 3-kinase catalytic subunit alpha isoform (Homo sapiens), P42336 [Q546K]; conditions: Compound concentration 1000.0 nM
[27] = biological target: Serine/threonine-protein kinase PLK3 (Homo sapiens) (UniProt Q9H4B4); conditions: Compound concentration 1000.0 nM
[28] = biological target: STE20-like serine/threonine-protein kinase (Homo sapiens) (UniProt Q9H2G2); conditions: Compound concentration 1000.0 nM
[29] = biological target: Serine/threonine-protein kinase 35 (Homo sapiens) (UniProt Q8TDR2); conditions: Compound concentration 1000.0 nM
[30] = biological target: T1, 5-hydroxytryptamine receptor 1A (Homo sapiens) (UniProt P08908); conditions: Compound concentration 10.0 uM
T1 sequence (whole entry): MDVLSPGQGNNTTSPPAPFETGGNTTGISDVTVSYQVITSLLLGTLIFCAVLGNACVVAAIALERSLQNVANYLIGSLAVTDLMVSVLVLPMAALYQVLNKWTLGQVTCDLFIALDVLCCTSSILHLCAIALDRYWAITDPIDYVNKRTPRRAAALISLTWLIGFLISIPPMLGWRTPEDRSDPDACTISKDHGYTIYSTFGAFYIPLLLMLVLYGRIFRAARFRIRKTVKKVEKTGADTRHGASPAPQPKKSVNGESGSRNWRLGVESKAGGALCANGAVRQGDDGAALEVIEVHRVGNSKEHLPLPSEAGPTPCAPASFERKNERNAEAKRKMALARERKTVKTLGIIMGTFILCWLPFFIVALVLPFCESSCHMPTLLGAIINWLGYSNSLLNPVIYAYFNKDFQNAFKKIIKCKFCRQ

[31] = biological target: D(1B) dopamine receptor (Homo sapiens) (UniProt P21918); conditions: Compound concentration 10.0 uM
[32] = biological target: T2, Muscarinic acetylcholine receptor M1 (Homo sapiens) (UniProt P11229); conditions: Compound concentration 10.0 uM
T2 sequence (whole entry): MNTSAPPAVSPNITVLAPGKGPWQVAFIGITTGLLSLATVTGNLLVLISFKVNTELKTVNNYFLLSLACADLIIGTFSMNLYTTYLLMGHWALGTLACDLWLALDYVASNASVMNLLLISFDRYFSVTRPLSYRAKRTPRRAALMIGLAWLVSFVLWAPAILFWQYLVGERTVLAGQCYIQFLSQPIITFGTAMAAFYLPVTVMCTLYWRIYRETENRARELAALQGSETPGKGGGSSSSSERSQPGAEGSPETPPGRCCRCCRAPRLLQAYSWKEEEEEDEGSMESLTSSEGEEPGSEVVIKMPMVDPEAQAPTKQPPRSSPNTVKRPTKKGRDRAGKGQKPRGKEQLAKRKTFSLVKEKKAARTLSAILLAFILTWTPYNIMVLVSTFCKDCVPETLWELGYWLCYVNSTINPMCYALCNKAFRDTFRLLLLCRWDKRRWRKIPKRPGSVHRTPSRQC

[33] = biological target: Muscarinic acetylcholine receptor M2 (Homo sapiens) (UniProt P08172); conditions: Compound concentration 10.0 uM

Sequence of Mast/stem cell growth factor receptor Kit (Homo sapiens), P10721 [A829P] (P10721 whole entry A829P): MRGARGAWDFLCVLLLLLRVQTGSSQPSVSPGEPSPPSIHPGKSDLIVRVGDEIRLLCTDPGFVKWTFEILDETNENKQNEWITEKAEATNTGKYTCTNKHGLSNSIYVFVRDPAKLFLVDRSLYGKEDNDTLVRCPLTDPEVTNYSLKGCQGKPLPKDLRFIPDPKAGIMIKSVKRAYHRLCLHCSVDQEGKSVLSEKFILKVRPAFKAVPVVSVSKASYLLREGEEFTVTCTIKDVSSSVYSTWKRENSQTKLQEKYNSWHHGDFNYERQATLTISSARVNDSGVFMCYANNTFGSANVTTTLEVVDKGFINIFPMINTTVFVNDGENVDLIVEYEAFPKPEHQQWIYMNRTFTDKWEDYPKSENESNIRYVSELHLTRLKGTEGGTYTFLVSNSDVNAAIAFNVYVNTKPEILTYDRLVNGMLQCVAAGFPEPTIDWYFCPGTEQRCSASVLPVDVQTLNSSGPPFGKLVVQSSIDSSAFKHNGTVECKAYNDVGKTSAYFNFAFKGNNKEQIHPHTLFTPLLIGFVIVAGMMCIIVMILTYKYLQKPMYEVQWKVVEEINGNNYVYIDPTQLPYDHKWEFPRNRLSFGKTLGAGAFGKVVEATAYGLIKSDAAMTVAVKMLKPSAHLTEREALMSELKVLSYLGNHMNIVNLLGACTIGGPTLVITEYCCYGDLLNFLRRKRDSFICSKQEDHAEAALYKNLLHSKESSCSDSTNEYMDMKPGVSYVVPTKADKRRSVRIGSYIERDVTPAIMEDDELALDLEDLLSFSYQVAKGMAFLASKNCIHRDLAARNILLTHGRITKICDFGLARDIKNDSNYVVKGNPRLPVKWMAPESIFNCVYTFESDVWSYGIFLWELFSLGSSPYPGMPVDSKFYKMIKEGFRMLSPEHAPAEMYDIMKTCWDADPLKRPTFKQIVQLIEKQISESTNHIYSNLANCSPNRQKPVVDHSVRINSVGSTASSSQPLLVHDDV
Sequence of Phosphatidylinositol 4-phosphate 3-kinase C2 domain-containing subunit beta (Homo sapiens) (O00750 whole entry, the tested form may be a part, canonical isoform): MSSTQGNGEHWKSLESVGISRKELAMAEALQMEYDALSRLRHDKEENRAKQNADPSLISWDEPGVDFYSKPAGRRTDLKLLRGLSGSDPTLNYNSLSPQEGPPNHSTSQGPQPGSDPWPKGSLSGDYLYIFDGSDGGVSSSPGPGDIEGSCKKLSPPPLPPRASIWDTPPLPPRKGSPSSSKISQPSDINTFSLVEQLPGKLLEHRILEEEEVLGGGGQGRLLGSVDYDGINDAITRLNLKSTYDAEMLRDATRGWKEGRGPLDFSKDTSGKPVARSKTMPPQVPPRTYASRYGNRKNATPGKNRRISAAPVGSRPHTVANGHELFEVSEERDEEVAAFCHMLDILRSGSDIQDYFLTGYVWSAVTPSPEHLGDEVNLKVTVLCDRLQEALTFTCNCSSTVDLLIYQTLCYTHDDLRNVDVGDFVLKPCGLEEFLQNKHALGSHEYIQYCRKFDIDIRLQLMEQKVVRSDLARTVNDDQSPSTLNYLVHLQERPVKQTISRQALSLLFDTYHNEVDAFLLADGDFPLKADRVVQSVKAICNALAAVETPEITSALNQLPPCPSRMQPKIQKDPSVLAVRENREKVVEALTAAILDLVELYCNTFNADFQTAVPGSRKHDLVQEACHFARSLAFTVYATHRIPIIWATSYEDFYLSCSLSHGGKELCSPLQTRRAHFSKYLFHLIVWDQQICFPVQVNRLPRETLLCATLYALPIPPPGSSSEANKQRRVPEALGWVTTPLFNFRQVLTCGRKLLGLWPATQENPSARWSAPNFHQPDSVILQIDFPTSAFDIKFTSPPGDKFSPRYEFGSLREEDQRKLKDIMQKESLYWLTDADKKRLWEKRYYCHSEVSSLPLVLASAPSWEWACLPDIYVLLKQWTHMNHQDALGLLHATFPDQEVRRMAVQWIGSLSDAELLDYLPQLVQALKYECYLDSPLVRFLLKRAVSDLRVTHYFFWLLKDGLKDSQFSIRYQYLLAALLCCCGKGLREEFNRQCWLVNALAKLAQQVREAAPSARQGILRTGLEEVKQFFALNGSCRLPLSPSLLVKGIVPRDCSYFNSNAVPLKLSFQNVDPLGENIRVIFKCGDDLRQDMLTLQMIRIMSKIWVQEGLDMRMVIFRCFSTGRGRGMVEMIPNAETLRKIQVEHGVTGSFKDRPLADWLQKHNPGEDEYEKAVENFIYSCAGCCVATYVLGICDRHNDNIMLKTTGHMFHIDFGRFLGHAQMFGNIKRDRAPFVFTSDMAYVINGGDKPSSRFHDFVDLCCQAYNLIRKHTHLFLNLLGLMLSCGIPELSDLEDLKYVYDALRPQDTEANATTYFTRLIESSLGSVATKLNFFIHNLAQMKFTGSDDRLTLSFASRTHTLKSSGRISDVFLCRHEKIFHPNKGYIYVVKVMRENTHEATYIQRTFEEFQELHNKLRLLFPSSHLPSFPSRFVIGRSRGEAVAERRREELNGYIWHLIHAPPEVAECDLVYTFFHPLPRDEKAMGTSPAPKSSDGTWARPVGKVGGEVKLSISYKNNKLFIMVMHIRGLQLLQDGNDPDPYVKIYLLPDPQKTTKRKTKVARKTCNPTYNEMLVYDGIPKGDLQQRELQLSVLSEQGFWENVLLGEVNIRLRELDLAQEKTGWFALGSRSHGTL
Sequence of Serine/threonine-protein kinase NLK (Homo sapiens) (Q9UBE8 whole entry): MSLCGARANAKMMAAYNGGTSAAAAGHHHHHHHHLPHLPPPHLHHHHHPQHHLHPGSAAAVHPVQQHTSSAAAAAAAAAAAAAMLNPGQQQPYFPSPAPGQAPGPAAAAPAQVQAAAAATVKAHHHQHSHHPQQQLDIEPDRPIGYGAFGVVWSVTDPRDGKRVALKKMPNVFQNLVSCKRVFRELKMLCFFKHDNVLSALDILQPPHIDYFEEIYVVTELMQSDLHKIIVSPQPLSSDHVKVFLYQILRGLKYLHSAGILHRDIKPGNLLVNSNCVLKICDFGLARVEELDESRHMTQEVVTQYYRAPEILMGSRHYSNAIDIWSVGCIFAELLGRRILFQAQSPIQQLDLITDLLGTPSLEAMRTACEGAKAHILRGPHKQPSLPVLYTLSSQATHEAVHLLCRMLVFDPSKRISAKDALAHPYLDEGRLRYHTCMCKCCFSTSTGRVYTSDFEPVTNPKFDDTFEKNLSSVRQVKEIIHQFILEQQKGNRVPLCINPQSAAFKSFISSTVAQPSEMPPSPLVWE
Sequence of Death-associated protein kinase 1 (Homo sapiens) (P53355 whole entry, looked up): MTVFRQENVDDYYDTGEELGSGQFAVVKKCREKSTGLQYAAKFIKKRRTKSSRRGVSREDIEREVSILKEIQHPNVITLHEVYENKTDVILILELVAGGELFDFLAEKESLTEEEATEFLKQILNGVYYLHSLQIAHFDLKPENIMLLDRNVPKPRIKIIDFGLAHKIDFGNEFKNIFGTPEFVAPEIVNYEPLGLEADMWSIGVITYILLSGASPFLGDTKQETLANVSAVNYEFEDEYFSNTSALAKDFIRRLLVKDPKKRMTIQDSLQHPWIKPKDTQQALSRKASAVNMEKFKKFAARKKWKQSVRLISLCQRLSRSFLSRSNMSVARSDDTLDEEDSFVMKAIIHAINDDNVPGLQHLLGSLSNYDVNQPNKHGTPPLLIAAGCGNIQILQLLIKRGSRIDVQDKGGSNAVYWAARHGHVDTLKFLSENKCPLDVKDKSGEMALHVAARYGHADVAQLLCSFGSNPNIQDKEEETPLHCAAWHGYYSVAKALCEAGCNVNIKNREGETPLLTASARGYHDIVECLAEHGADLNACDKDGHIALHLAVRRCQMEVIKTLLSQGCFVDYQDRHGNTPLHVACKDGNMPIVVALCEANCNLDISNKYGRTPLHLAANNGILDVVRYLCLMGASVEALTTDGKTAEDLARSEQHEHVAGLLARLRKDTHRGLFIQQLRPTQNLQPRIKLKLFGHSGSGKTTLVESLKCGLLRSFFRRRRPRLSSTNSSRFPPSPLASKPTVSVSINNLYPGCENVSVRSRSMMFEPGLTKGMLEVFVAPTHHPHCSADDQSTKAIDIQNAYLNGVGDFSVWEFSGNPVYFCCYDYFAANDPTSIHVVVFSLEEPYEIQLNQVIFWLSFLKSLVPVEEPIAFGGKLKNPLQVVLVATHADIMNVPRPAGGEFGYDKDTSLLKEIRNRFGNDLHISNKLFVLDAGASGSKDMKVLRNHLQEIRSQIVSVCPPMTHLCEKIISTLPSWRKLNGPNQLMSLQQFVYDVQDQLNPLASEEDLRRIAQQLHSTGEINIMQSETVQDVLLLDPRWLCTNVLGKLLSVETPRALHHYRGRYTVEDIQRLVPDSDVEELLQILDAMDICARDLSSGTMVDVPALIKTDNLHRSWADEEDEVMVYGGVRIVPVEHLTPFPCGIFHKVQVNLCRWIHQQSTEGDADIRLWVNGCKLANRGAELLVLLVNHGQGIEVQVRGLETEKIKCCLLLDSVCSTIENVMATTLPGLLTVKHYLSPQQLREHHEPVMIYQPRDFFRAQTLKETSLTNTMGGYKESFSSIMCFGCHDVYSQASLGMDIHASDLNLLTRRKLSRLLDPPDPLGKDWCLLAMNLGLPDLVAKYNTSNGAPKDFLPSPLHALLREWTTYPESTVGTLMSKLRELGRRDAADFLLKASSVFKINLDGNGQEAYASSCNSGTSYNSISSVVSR
Sequence of D(1B) dopamine receptor (Homo sapiens) (P21918 whole entry): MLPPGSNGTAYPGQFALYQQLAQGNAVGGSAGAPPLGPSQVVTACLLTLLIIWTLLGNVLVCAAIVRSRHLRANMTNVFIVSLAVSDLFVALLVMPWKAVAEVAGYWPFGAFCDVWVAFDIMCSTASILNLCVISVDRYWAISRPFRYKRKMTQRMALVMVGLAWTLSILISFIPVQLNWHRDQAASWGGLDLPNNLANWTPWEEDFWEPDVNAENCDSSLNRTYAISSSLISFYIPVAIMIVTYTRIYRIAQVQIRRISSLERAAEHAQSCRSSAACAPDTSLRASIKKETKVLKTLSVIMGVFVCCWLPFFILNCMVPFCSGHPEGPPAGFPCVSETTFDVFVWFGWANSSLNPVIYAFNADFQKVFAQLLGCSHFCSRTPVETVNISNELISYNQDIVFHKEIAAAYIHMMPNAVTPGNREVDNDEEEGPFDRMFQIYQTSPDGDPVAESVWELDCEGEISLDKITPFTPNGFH

O=C(Nc1ccc(Oc2ccc(F)cc2)cc1)N1CCc2ncccc2[C@H]1c1ccc(F)cc1 [BAY-897]
inactive: residual activity [1] 95% | residual activity [2] 100% | residual activity [3] 94% | residual activity [4] 96% | residual activity [5] 87% | residual activity [6] 93% | residual activity [7] 93% | residual activity [8] 79% | residual activity [9] 82% | residual activity [10] 87% | residual activity [11] 96% | residual activity [12] 100% | residual activity [13] 99% | residual activity [14] 95% | residual activity [15] 79% | residual activity [16] 100% | residual activity [17] 80% | residual activity [18] 99% | residual activity [19] 92% | residual activity [20] 100% | residual activity [21] 93% | residual activity [22] 87% | residual activity [23] 100% | residual activity [24] 96% | residual activity [25] 96% | residual activity [26] 75% | residual activity [27] 87% | residual activity [28] 100% | residual activity [29] 80% | inhibition [30] -3.56% | inhibition [31] 29.1% | inhibition [32] -2.98% | inhibition [33] -1.78%

O=C(Nc1cnc(Oc2ccc(F)cc2)nc1)N1CCc2ncccc2[C@@H]1c1ccc(F)cc1 [BAY-899]
inactive: residual activity [1] 91% | residual activity [2] 100% | residual activity [3] 100% | residual activity [4] 88% | residual activity [5] 81% | residual activity [6] 83% | residual activity [7] 92% | residual activity [8] 75% | residual activity [9] 77% | residual activity [10] 78% | residual activity [11] 92% | residual activity [12] 99% | residual activity [13] 100% | residual activity [14] 96% | residual activity [15] 91% | residual activity [16] 100% | residual activity [17] 89% | residual activity [18] 100% | residual activity [19] 86% | residual activity [20] 100% | residual activity [21] 92% | residual activity [22] 73% | residual activity [23] 79% | residual activity [24] 97% | residual activity [25] 95% | residual activity [26] 95% | residual activity [27] 87% | residual activity [28] 82% | residual activity [29] 71% | inhibition [30] -8.97% | inhibition [31] 10.1% | inhibition [32] 7.56% | inhibition [33] -5.1%

Source: ChEMBL document CHEMBL4507317, “Data for DCP probe BAY-899” (2021)
